Test results published in article PMC5378956, “Inhibition of delta-secretase improves cognitive functions in mouse models of Alzheimer's disease” (Nature Communications, 2017).

Test system: tau P301S mice
Procedure: Only 2-month-old male mice were used in the present study. Sample size was determined by Power and Precision (Biostat). The animals were randomly allocated to experimental groups. Investigators were blinded to the group allocation during the animal experiments. […] The protocol was reviewed and approved by the Emory Institutional Animal Care and Use Committee. Rabbit anti-tau N368 (1:1,000), and anti-APP585N (1:500) antibody, which specifically recognize the δ-secretase-derived tau and APP fragments respectively, were described previously. […] TUNEL in situ cell death detection kit was from Roche (Indianapolis, IN). […] All chemicals not included above were purchased from Sigma-Aldrich (St. Louis, MO). Recombinant δ-secretase was obtained from Sino Biological (Beijing, China), recombinant cathepsin-S was obtained from Athens Research and Technology (Athens, GA), recombinant caspase-3 and caspase-8 were obtained from Millipore (Billerica, MA).
Synaptic density was determined by electron microscopy as described previously. After deep anaesthesia, mice were perfused transcardially with 2% glutaraldehyde and 3% paraformaldehyde in PBS. Hippocampal slices were post-fixed in cold 1% OsO4 for 1 h. Samples were prepared and examined using standard procedures. Ultrathin sections (90 nm) were stained with uranyl acetate and lead acetate and viewed at 100 kV in a JEOL 200CX electron microscope. Four mice were examined in each group. Synapses were identified by the presence of synaptic vesicles and post synaptic densities.
Electrophysiological analysis was carried out as described previously. […] The hippocampi were cut into 400-μm thick transverse slices with a vibratome. A 0.1 MΩ tungsten monopolar electrode was used to stimulate the Schaffer collaterals. The field excitatory post synaptic potentials (fEPSPs) were recorded in CA1 stratum radiatum by a glass microelectrode filled with a-CSF with resistance of 3–4 MΩ. The stimulation output (Master-8; AMPI, Jerusalem) was controlled by the trigger function of an EPC9 amplifier (HEKA Elektronik, Lambrecht, Germany). fEPSPs were recorded under current-clamp mode. Data were filtered at 3 kHz and digitized at sampling rates of 20 kHz using Pulse software (HEKA Elektronik). The stimulus intensity (0.1 ms duration, 10–30 μA) was set to evoke 40% of the maximum f-EPSP and the test pulse was applied at a rate of 0.033 Hz. LTP of fEPSPs was induced by three theta-burst-stimulation (TBS; 4 pulses at 100 Hz, repeated three times with a 200-ms interval). Paired-pulse facilitation (PPF) was examined by applying pairs of pulses, which were separated by 20–500 ms intervals. The magnitudes of LTP are expressed as the mean percentage of baseline fEPSP initial slope.
The mice were trained in a round, water-filled tub (52′ diameter) in an environment rich with extra maze cues. An invisible escape platform was located in a fixed spatial location 1 cm below the water surface independent of a subject's start position on a particular trial. In this manner, subjects needed to utilize extra maze cues to determine the platform's location. At the beginning of each trial, the mouse was placed in the water maze with their paws touching the wall from 1 of 4 different starting positions (N, S, E, W). […] On reaching the invisible escape platform, subjects were left on it for an additional 5 s to allow for survey of the spatial cues in the environment to guide future navigation to the platform. After each trial, subjects were dried and kept in a dry plastic holding cage filled with paper towels to allow the subjects to dry off. […] The percentage of time that was spent in the quadrant, which previously contained the escape platform during task acquisition, was measured over 60 s. All trials were analysed for latency, swim path length and swim speed by means of MazeScan (Clever Sys, Inc.).
The solution was changed each day.

Nc1ccc(N2CCOCC2)c2nonc12 [compound 11, 7-(morpholin-4-yl)-2,1,3-benzoxadiazol-4-amine] was tested, and the “phosphorylation, aggregation and oligomerization of tau” value (10 mg kg−1 d−1 oral, 3 months) was “attenuated”, the “cleavage of mouse and human tau after N368” value (10 mg kg−1 d−1 oral, 3 months, Western blot) was “decreased the cleavage” and the “Morris water maze latency to platform” value (five acquisition days) was “decreased latency to platform”. The “percentage of AT8- and AT100-positive neurons” value (hippocampus and cortex) was “decreased”, the “percentage of neurons positive of tau N368” value (hippocampus and cortex, immunohistochemistry) was “decreased” and the LTP amplitude (mouse, in vivo) was “significantly elevated the LTP amplitude”. The “behavioural deficits in probe trial (time in target quadrant)” value (mouse, in vivo) was “ameliorated”, the “dendritic spine density (Golgi stain)” value (mouse, in vivo) was “increased the density of spines” and the swim speed (mouse, in vivo) was “not affected”. For the same compound, the “concentrations of IL-1β and TNFα” value (tau P301S mice) was “reduced the concentrations of inflammatory cytokines IL-1β and TNFα” and the “activity of δ-secretase in the brain” value (wild-type and tau P301S mice, 10 mg kg−1 d−1 oral, 3 months) was “significantly inhibited”.
